Data reported in patent publication EP0993306B1, “PERFLUOROALKYLATED OLIGOMER COMPOUNDS, PROCESS FOR PREPARING THE SAME AND THEIR USE IN NMR DIAGNOSIS” (SCHERING AKTIENGESELLSCHAFT, priority 1997, dated 1999).

Tests used:
[1] = Contrast-enhanced MR angiography (3D FLASH, 2.0 Tesla); assay type: in vivo, Ratten (Han. Wistar); settings: directly after single i.v. 50 µmol/kg or 100 µmol/kg; 3 D FLASH 10/2.6/40°
Method: Die Untersuchungen zur kontrastmittelgetützten MR Angiographie wurden an einem experimentellen MRT System (SISCO SIS 85, 2.0 Tesla) mit einer 3 D FLASH Technik (10/2.6/40°) durchgeführt. Um die Wirksamkeit von Kontrastmitteln zur Darstellung von Blutgefäßen zu bestimmen, wurden narkotisierte (Rompun® + Ketavet®,1 + 1, v/v; ≈ 1 ml pro kg Körpergewicht, i. m.) Ratten (Han. Wistar; ≈ 200 g Körpergewicht) MR-tomographisch untersucht.
Figur 4 zeigt Abbildungen dieses Experiments. Die MIP (maximal intensity projection)-Bilder wurden berechnet aus den 3 D FLASH Experimenten vor (links) und direkt nach einmaliger i. v. Applikation von 50 µmol / kg (mitte) bzw. 100 µmol /kg (rechts) der Substanz aus Beispiel 1 g.

[2] = rat, in vivo, iv, 100 umol/kg
Description: Hierfür wurde nach einmaliger intravenöser Applikation (via einer Caudalvene) der Substanzen (Dosis: ≈ 100 µmol Metall pro kg Körpergewicht) die Substanzkonzentration im Blut (basierend auf dem Gd- bzw. Dy-Gehalt) über einen Zeitraum bis zu 120 Minuten p. i. mittels ICP-AES bestimmt. Die pharmakokinetischen Parameter: Verteilungsvolumen (Vss), Gesamtclearance (CLtot) und Eliminationshalbwertszeit (tb) wurden mit einem speziellen Computerprogramm (TOPFIT 2.0; Thomae, Schering, Gödecke) berechnet, wobei ein Zwei-Kompartment-Distributionsmodell zu Grunde gelegt wurde.
Die Gd- und Dy-Gehalte im Blut wurden mittels ICP-AES bestimmt.
Hierfür wurde nach einmaliger intravenöser Applikation (via einer Caudalvene) der Substanzen (Dosis: ≈ 100 µmol Metall pro kg Körpergewicht) die Substanzkonzentration im Blut (basierend auf dem Metallgehalt) über einen Zeitraum bis zu 120 Minuten p. i. mittels ICP-AES bestimmt. Die pharmakokinetischen Parameter: Verteilungsvolumen (Vss), Gesamtclearance (CLtot) und Eliminationshalbwertszeit (tb) wurden mit einem speziellen Computerprogramm (TOPFIT 2.0; Thomae, Schering, Gödecke) berechnet, wobei ein Zwei-Kompartment-Distributionsmodell zu Grunde gelegt wurde.

[3] = T1 relaxivity in human plasma (Minispec pc 20); assay type: physicochemical
[4] = Diffusibility: in vivo comparison with an intravasal and an extracellular contrast agent, ligated renal vessels; settings: for Prozentsatz der im Blutraum verbliebenen Dosis: i.v. 20 µmol/kg each, ligated renal vessels, relative to Verbindung 2 set as 100 %
Method: Als Versuchstiere dienten drei 250 g schwere, männliche (Schering-SPF-) Ratten. Den Tieren wurden die Nierengefäße abgebunden, um eine renale Eliminierung zu verhindern und bei angenommener vernachlässigbarer faekaler Eliminierung ein Maß für Diffusibilität der erfindungsgemäßen Formulierung aus dem Blut in das umgebende Gewebe zu erhalten. Je Tier wurden 0.5 ml (jeweils 10 mmol/L) der folgenden Kontrastmittel-Lösung intravenös appliziert: Gemisch aus je 1 Teil der Verbindung des Beispiels 1g, im folgenden Verbindung 1 genannt, des intravasalen Kontrastmittels Eu-DTPA-Albumin, im folgenden Verbindung 2 genannt, und des extrazellulären Kontrastmittels Dy-DTPA, im folgenden Verbindung 3 genannt. Über einen Katheter in der Arteria carotis communis wurden Blutproben zu folgenden Zeitpunkten entnommen: 15, 30, 45, 60, 90 sec, 3, 5, 10, 15 min p.i. In den gewonnenen Blutproben wurden jeweils parallel die Konzentrationen an Gadolinium (Gd), Europium (Eu) und Dysprosium (Dy) mittels Atomemissionsspektrometrie (ICP-AES) gemessen. Der im Blutraum verbliebene Anteil des intravasalen Kontrastmittels Verbindung 2 (Eu) wurde als 100 % gesetzt. Der im Blutraum verbliebene Anteil der erfindungsgemäßen Formulierung Verbindung 1 (Gd) und der Verbindung 3 (Dy, extrazelluläre Vergleichssubstanz) konnte durch die unterschiedliche Markierung im gleichen Tier verglichen werden und wurde prozentual ins Verhältnis zur Konzentration der Verbindung 2 gesetzt. Damit liefern diese Daten Angaben über den Verbleib der Verbindungen im Intravasalraum.

## 1,4,7-Tris {1,4,7-tris(N-carboxylatomethyl)-10-(N-1-methyl-3,6-diaza-2,5,8-trioxooctan-1,8-diyl)-1,4,7,10-tetraazacyclododecan, Gd-Komplex}-10-(N-2H,2H,4H,4H,5H,5H-3-oxa-perfluor-tridecanoyl)-1,4,7,10-tetraazacyclododecan [Beispiel 1g]
[1]
  Signalanstieg in den Blutgefäßen (MIP-Bilder): ausgeprägter Signalanstieg in den Blutgefäßen und eine deutliche Kontrastierung zum Normalgewebe
[2]
  CL tot: 0.41 mL/min/kg
  Vss: 0.09 L/kg
[3]; 0.47 T, 20 MHz, 37 °C, Humanplasma, normalised to one metal atom
  R^1 (T^1-Relaxivity): 19,5 L/mmol * sec
[3]; plasma
  Relaxivity (r1, Plasma): ≈ 19.5 1*mmol^- ^1*s^-1
[4]; 30 sec p.i.
  Prozentsatz der im Blutraum verbliebenen Dosis: 84%
[4]; 3 min p.i.
  Prozentsatz der im Blutraum verbliebenen Dosis: 62%
[4]; 10 min p.i.
  Prozentsatz der im Blutraum verbliebenen Dosis: 44%
[4]; early time points
  Blutkonzentrationen verglichen mit dem extrazellulären Kontrastmittel: deutlich höhere Blutkonzentrationen
[4]; first minute p.i.
  Diffusion in das Interstitium im Vergleich zu Eu-DTPA-BSA (Verbindung 2): nur geringfügig schneller
[4]; whole duration of the experiment
  Diffusion in das Interstitium im Vergleich zu Dy-DTPA (Verbindung 3): langsamer
